Reference: patent publication US20250018014A1, “METHOD FOR TREATING AND/OR PREVENTING REGNASE-1-RELATED DISEASE” (OSAKA UNIVERSITY, priority 2018, published 2025)
Residues, ends and D or L forms follow the SMILES beside them.

Tests used:
[1] = biological target: T1, FL_Reg1 (full-length human Regnase-1) phosphorylation by TBK1 (Homo sapiens, UniProt Q5D1E8); test: Regnase-1 phosphorylation inhibition by compounds (AlphaScreen), TBK1, full-length Regnase-1; format: biochemical; details: Table 13; phosphorylation by TBK1; read-out: Phosphorylation inhibition FL_Reg1, 50% inhibition concentration (TBK1)
T1 construct: made in house; host or cells: Expi293 cells
T1 sequence (Q5D1E8 1-599): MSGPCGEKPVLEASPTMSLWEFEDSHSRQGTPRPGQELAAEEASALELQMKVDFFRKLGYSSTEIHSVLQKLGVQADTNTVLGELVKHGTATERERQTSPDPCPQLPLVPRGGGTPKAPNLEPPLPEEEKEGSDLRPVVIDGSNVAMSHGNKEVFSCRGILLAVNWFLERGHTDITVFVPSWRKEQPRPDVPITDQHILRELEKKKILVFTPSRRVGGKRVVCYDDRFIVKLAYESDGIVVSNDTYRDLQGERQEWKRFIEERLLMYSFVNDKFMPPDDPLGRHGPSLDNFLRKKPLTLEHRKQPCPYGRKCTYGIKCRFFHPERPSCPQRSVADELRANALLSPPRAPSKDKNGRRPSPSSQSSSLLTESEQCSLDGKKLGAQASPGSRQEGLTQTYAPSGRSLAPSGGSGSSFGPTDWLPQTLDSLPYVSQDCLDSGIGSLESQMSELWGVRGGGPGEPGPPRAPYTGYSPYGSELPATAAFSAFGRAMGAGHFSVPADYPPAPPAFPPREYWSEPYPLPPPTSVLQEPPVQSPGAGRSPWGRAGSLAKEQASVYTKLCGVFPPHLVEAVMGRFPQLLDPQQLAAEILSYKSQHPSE
From the text: (§1) The full-length sequence of human Regnase-1 (UniProt ID: Q5D1E8) was used to prepare a construct having a FLAG tag on the N-terminal side and a recognition sequence for biotin ligase BirA on the C-terminal side (FL_Reg1) as a target protein. The above-mentioned Regnase-1 was expressed in mammalian Expi293 cells, purified with FLAG M2 agarose, and isolated by gel filtration chromatography. When biotinylation was required, methods from nonpatent documents (BMC biotechnology, 2008,8,41; and Protein Science, 1999,8,921-929) were used. […]
(§2) Using Kinase assay buffer III (manufactured by SignalChem) supplemented with 2 mM DTT, 100 μM sodium vanadate, and 2 mM manganese chloride, kinase (IKKβ (manufactured by SignalChem) or TBK1 (manufactured by SignalChem)) and Regnase-1 were reacted in the presence of 10 μM ATP at room temperature for 2 hours to perform a phosphorylation reaction.
(§3) Phosphorylated Regnase-1 was detected by the AlphaScreen system. After each of the above-mentioned phosphorylated Regnase-1 antibodies was added and reacted at room temperature for one hour, anti-FLAG AlphaLISA Acceptor Beads (manufactured by PerkinElmer) and Protein A AlphaScreen Donor Beads (manufactured by PerkinElmer) were added, and EnVision (manufactured by PerkinElmer) was used to measure the excited luminescence. As a result, phosphorylated Regnase-1 produced by the phosphorylation reaction by kinase was specifically detected, and signals were confirmed to be enhanced in a manner dependent on Regnase-1 and kinase concentrations (FIG. 24).
(§4) After mixing 2 nM of the above-mentioned Regnase-1 and the compound, phosphorylated Regnase-1 produced by the phosphorylation reaction was detected by the AlphaScreen system. As the results, the inhibition rate was calculated from the signals obtained when adding the compound at each concentration, by defining the signal obtained with Regnase-1 alone to be 100% inhibition rate, and the signal obtained when the same amount of solvent (DMSO) is added in place of the compound as 0% inhibition rate. The 50% inhibition concentration (μM) was calculated from the obtained dose response curve (Table 11).

[2] = biological target: T2, Reg1_301-599 (amino acids 301-599 of human Regnase-1) phosphorylation by TBK1 (Homo sapiens, UniProt Q5D1E8); test: Regnase-1 phosphorylation inhibition by compounds (AlphaScreen), TBK1, C-terminal Regnase-1; format: biochemical; details: Table 13, read-out: Phosphorylation inhibition Reg1_301-599, 50% inhibition concentration (TBK1)
T2 construct: made in house; host or cells: Expi293 cells
T2 sequence (Q5D1E8 301-599): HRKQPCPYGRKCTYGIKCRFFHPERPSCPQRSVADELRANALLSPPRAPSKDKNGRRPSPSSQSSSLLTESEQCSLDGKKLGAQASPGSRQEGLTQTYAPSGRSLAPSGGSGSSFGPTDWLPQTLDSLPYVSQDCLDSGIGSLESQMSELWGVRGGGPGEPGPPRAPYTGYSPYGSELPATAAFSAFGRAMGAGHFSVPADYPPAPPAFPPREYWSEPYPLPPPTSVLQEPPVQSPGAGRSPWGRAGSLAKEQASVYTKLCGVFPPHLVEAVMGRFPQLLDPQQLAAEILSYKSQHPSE
Protocol: (§5) Among the full-length human Regnase-1 sequence, the 1st to 546th amino acid sequence was prepared and made into a construct having a FLAG tag on the N-terminal side and a biotin ligase BirA recognition sequence on the C-terminal side (herein, a Regnase-1 lacking the C-terminal domain of Regnase-1 (amino acids 547 to 599 in the case of SEQ ID NO: 2) is referred to as “ΔCTD_Reg1”. “ΔCTD_Reg1” is different from “Regnase-1ΔCTD”, which is a C-terminal domain deletion variant resulting from a frameshift mutation caused by a 1 bp deletion at codon 517, as prepared in Example 13). In addition, the sequence from amino acids 301 to 599 of the full-length human Regnase-1 sequence was designated as C-terminal Regnase-1, and a construct having a FLAG tag on the N-terminal side and a recognition sequence for biotin ligase BirA on the C-terminal side was prepared (Reg1_301-599). The above-mentioned Regnase-1 was expressed in mammalian Expi293 cells, purified with FLAG M2 agarose, and isolated by gel filtration chromatography. When biotinylation was required, methods of nonpatent documents (BMC biotechnology, 2008,8,41; and Protein Science, 1999,8,921-929) were used.
as §2, §3, §4

[3] = biological target: T3, FL_Reg1 (full-length human Regnase-1) phosphorylation by IKKβ (Homo sapiens, UniProt Q5D1E8); test: Regnase-1 phosphorylation inhibition by compounds (AlphaScreen), IKKβ, full-length Regnase-1; format: biochemical; details: Table 14; phosphorylation by IKKβ; read-out: Phosphorylation inhibition FL_Reg1, 50% inhibition concentration (IKKβ)
T3 construct: made in house; host or cells: Expi293 cells
T3 sequence (Q5D1E8 1-599): T1 sequence (Q5D1E8 1-599)
From the text: as §1, §2, §3, §4

[4] = biological target: T4, Reg1_301-599 (amino acids 301-599 of human Regnase-1) phosphorylation by IKKβ (Homo sapiens, UniProt Q5D1E8); test: Regnase-1 phosphorylation inhibition by compounds (AlphaScreen), IKKβ, C-terminal Regnase-1; format: biochemical; details: Table 14, read-out: Phosphorylation inhibition Reg1_301-599, 50% inhibition concentration (IKKβ)
T4 construct: made in house; host or cells: Expi293 cells
T4 sequence (Q5D1E8 301-599): T2 sequence (Q5D1E8 301-599)
From the text: (§6) The full-length sequence of human Regnase-1 (UniProt ID: Q5D1E8) was used to prepare a construct having a FLAG tag on the N-terminal side and a recognition sequence for biotin ligase BirA on the C-terminal side (FL_Reg1) as a target protein. The above-mentioned Regnase-1 was expressed in mammalian Expi293 cells, purified with FLAG M2 agarose, and isolated by gel filtration chromatography. When biotinylation was required, methods from nonpatent documents (BMC biotechnology, 2008,8,41; and Protein Science, 1999,8,921-929) were used.
as §5, §2, §3, §4

[5] = biological target: T5, binding between TBK1 and full-length Regnase-1 (FL_Reg1) (Homo sapiens, UniProt Q5D1E8); test: Inhibition of kinase-Regnase-1 binding by the compounds (AlphaScreen), TBK1; details: Table 13; binding between TBK1 and Regnase-1; read-out: Binding inhibition FL_Reg1, 50% inhibition concentration (TBK1)
T5 construct: made in house; host or cells: Expi293 cells
T5 sequence (Q5D1E8 1-599): T1 sequence (Q5D1E8 1-599)
Protocol: as §6, with “As a target protein,” for “The full-length sequence of human Regnase-1 (UniProt ID: Q5D1E8) was used to prepare”, “of the full-length sequence of human Regnase-1 (UniProt ID: Q5D1E8) was prepared (FL_Reg1).” for “(FL_Reg1) as a target protein.”
(§7) After mixing 2.5 nM of the above-mentioned Regnase-1 and the compound, 2.5 nM of IKKβ or TBK1 was added and reacted at room temperature for two hours. Then, Anti FLAG AlphaLISA Acceptor Beads (manufactured by PerkinElmer) and Glutathione-coated AlphaScreen Donor Beads (manufactured by PerkinElmer) were added, and excited luminescence was measured using En Vision (manufactured by PerkinElmer). As the results, the inhibition rate from the signals obtained when adding the compound at each concentration were calculated, by defining the signal obtained with Regnase-1 alone to be 100% inhibition rate, and the signal obtained when the same amount of solvent (DMSO) is added in place of the compound as 0% inhibition rate. The 50% inhibition concentration (μM) was calculated from the obtained dose response curve (Table 12).

[6] = biological target: T6, binding between IKKβ and full-length Regnase-1 (FL_Reg1) (Homo sapiens, UniProt Q5D1E8); test: Inhibition of kinase-Regnase-1 binding by the compounds (AlphaScreen), IKKβ; details: Table 14; binding between IKKβ and Regnase-1; read-out: Binding inhibition FL_Reg1, 50% inhibition concentration (IKKβ)
T6 construct: made in house; host or cells: Expi293 cells
T6 sequence (Q5D1E8 1-599): T1 sequence (Q5D1E8 1-599)
Protocol: as §6, with “As a target protein,” for “The full-length sequence of human Regnase-1 (UniProt ID: Q5D1E8) was used to prepare”, “of the full-length sequence of human Regnase-1 (UniProt ID: Q5D1E8) was prepared (FL_Reg1).” for “(FL_Reg1) as a target protein.”
as §7

[7] = biological target: T7, FL_Reg1 (Homo sapiens, UniProt Q5D1E8); test: Binding of Regnase-1 and peptide compounds (affinity mass analysis, SEC then LC/MS); details: 1 μM FL_Reg1, final compound concentration 1 μM, 23° C. for one hour
T7 construct: made in house; host or cells: Expi293 cells
T7 sequence (Q5D1E8 1-599): T1 sequence (Q5D1E8 1-599)
Protocol: To a 96 PP plate (Greiner bio-one, 651201) coated with lipidure (Lipidure-CM5206) (NOF CORPORATION, 71S42000001), 2 μL of Tris-Buffer (25 mM Tris-NaOH pH 8.3, 300 mM NaCl, 1 mM DTT, 1 mM EDTA, 1% DMSO) was dispensed, and then 1 mM DMSO sample was added at 20 nL each with a LABCYTE ECHO (registered trademark) acoustic dispensing system. Furthermore, 18 μL of protein prepared at 1 μM FL_Reg1 in advance using Tris-Buffer was added (final compound concentration: 1 μM), and the mixture was incubated in the dark at 23° C. for one hour. Then, to a 96-well, 400 μL, Hydrophilic PVDF 0.45 μm, Long drip (Harvard, 74-5556), 100 μL of P-2, Fine (Bio-Rad, 1504114) which had been swollen in advance was added, and conditioning was performed by centrifuging several times at 2000× G for two minutes using the buffer. Next, 20 μL of the sample after incubation was added to the conditioned 96-well, 400 μL, Hydrophilic PVDF 0.45 μm, Long drip, and SEC treatment was performed by centrifugation at 2000×G for two minutes. To the liquid from SEC, 32 μL of acetonitrile (LC/MS grade, FUJIFILM Wako Pure Chemical Industries, Ltd.) supplemented with 0.1% formic acid (LC/MS grade, 067-04531, FUJIFILM Wako Pure Chemical Industries, Ltd.) was added, and this was centrifuged at 1800×G for five minutes, and the supernatant was used as an analysis sample for LC/MS measurement. Binding to Regnase-1 was detected for all of the peptide compounds, PP1 to PP25.

SMILES | IC50 [1] [µM] | IC50 [2] [µM] | IC50 [3] [µM] | IC50 [4] [µM] | IC50 [5] [µM] | IC50 [6] [µM] | AS-MS ratio(%) [7] [%]
CC[C@H](C)[C@@H]1NC(=O)[C@H](Cc2c[nH]c3ccccc23)NC(=O)[C@H](CO)NC(=O)[C@H](Cc2c[nH]c3ccccc23)NC(=O)[C@H](C(C)C)NC(=O)CNC(=O)[C@H](Cc2ccccc2)NC(=O)[C@H](CCCNC(=N)N)NC(=O)[C@H](C)N(C)C(=O)C[C@@H](C(=O)N2CCCC2)NC(=O)[C@@H]2CCCN2C(=O)[C@H](Cc2ccc(O)cc2)NC1=O [PP14] (HELM PEPTIDE1{[meA].R.F.G.V.W.S.W.I.Y.P.D.[C1CCN([*:1])C1]}$PEPTIDE1,PEPTIDE1,1:R1-12:R3$$$V2.0) | 3.1 | 6.8 | 1.6 | 6.5 | 7.1 | 20.1 | –
CC(C)[C@@H]1NC(=O)[C@H](Cc2c[nH]c3ccccc23)NC(=O)[C@H](CCCCN)NC(=O)[C@H](Cc2c[nH]c3ccccc23)NC(=O)[C@H](CCC(N)=O)NC(=O)[C@H](CCCNC(=N)N)NC(=O)[C@H](Cc2ccccc2)NC(=O)[C@H](CCCNC(=N)N)NC(=O)[C@H](C)N(C)C(=O)C[C@@H](C(=O)N2CCCC2)NC(=O)[C@@H]2CCCN2C(=O)[C@H](Cc2ccc(O)cc2)NC1=O [PP13] (HELM PEPTIDE1{[meA].R.F.R.Q.W.K.W.V.Y.P.D.[C1CCN([*:1])C1]}$PEPTIDE1,PEPTIDE1,1:R1-12:R3$$$V2.0) | 8.4 | – | 3.6 | – | 13.8 | 16.9 | 0.1
